What is called melting point is the temperature, or range, at which the solid turns liquid.

Experimental findings from patent US8404866B2, “Substituted heterocyclic mercaptosulfonamide metalloprotease inhibitors” (Florida State University Research Foundation, priority 2008, dated 2013) are described below.

For data set [1], the system named is human mesenchymal stem cells (hMSC). Put plainly: MMPI cytotoxicity / growth of hMSC (trypan blue count). The following applies: 1 nM to 100 μM, 24 hours. The class given is cell-based. The protocol: Passage 3 human adult bone marrow-derived mesenchymal stem cells (hMSCs, Tulane Center for Gene Therapy) were plated for a recovery phase of 24 hours at 37° C. and 5% CO2 in Alpha Minimum Essential Medium (αMEM, Sigma Aldrich) containing L-glutamine but without ribonucleosides or deoxyribonucleosides, 16.5% FBS, ˜2-4 mM L-glutamine, and penicillin and streptomycin as antibiotics. After the recovery phase, hMSCs were seeded into 6-well plates at a density of ˜60 cells/cm^2 within each well containing 2 mL of cell culture medium. Fresh cell culture medium was added every 3 days until the cells reached a confluency of approximately ˜70% at which media was changed to the conditioned forms necessary for observing MMPI cytotoxicity.
Upon reaching the desired confluency, each cell type was treated with the respective fresh media that was conditioned with a logarithmic panel of MMPI concentrations ranging from 1 nM to 100 μM. Specifically, each of the inhibitors were dissolved in an appropriate amount of 100% EtOH to generate 8 mM stock solutions from which an aliquot was used to produce serial dilutions with either SmBm or αMEM. The conditioned media was added to either hCASMCs or hMSCs and incubated for 24 hours. […] In order to quantify the levels of toxicity these inhibitors had on hCASMC and hMSC growth and viability, the cells were treated with trypan blue and counted via a hemocytometer. […]

The subject of data set [2] is human coronary artery smooth muscle cells (hCASMC). Put plainly: MMPI cytotoxicity / growth of hCASMC (trypan blue count). The class given is cell-based. As to conditions: 24 hours. The protocol: Passage 7 human coronary artery smooth muscle cells (hCASMCs) were plated in a 10 cm dish containing 20 mL of smooth muscle basal medium (SmBm, Lonza, Cat. No. CC-3182) supplemented with 0.1% insulin, 0.1% epidermal growth factor (rhEGF), 0.2% fibroblast growth factor-B (rhFGF-B), 0.1% gentamicin/amphotericin (antibiotics), and 5% FBS. The cells were incubated for 24 hours at 37° C. and 5% CO2, with 20 mL of fresh SmBm added the following day. Fresh SmBm was added every 2 days until the culture was ˜70-80% confluent and contained a minimum of 5 mitotic figures when viewed at 100× magnification. At this time, cells were then trypsinized and seeded into 24-well plates at an initial density of 3,500 cells/cm^2 and grown to ˜60% confluence prior to MMPI treatment.
Upon reaching the desired confluency, each cell type was treated with the respective fresh media that was conditioned with a logarithmic panel of MMPI concentrations ranging from 1 nM to 100 μM. Specifically, each of the inhibitors were dissolved in an appropriate amount of 100% EtOH to generate 8 mM stock solutions from which an aliquot was used to produce serial dilutions with either SmBm or αMEM. […] In order to quantify the levels of toxicity these inhibitors had on hCASMC and hMSC growth and viability, the cells were treated with trypan blue and counted via a hemocytometer. […]

In data set [3] the test system is human brain microvascular endothelial cells (hBMECs). Put plainly: Endothelial cell migration and wound-healing assay. The format is cell-based. The following applies: at 3 μM and above, 24 hours. The method, then:
Culture of human brain microvascular endothelial cells: Human brain microvascular endothelial cells (hBMECs) were cultured with EGM-2MV Microvascular Endothelial Cell Medium-2 1 kit Bullet Kit, 5% fetal bovine serum, with or without treatments with synthetic matrix metalloproteinase inhibitors (MMPIs), at 37° C. and 5% CO2.
Endothelial cell migration and wound-healing assays: All experiments for this phase were performed in triplicate, and each consisted of […] wounded cultures utilizing serial concentrations of MMPIs: (1) an untreated control; (2) 100 μM MMPI; (3) 30 μM MMPI; (4) 10 μM MMPI; (5) 3 μM MMPI; (6) 1 μM MMPI; (7) 100 nM MMPI; (8) 10 nM MMPI; and (9) 1 nM MMPI. A 1 mL pipette tip was utilized to create a linear wound in a confluent monolayer of hBMECs. A fine, sterile needle was used to demarcate a cell-free “wounded field”. All cultures were photographed at that time. After 24 hours, the wounded cell culture was washed three times with phosphate buffered saline, fixed with 4% paraformaldehyde for 10-20 min, and stained with 0.1% crystal violet for 10-20 min. The stained culture was washed with ddH2O three times and left overnight to air dry. […] The density of the cell coverage in the wounded field was quantified utilizing the integrated morphometry analysis (IMA) (Metamorph System v.4.6r8, University Imaging Corp.). […]

Molecules are shown by their SMILES. Counter-ions that a name gives are not always drawn.

Compound `O=C(OCc1ccccc1)N1C[C@H](NS(=O)(=O)c2ccc(Oc3ccccc3)cc2)[C@@H](S)C1` (racemic) [Example 5, (±)-N-(Benzyloxycarbonyl)-trans-3-(4-phenoxybenzenesulfonamido)-4-mercaptopyrrolidine] returned a melting point of 142 to 143 °C.
As for `CN([C@H]1CN(C(N)=O)C[C@@H]1S)S(=O)(=O)c1ccc(Oc2ccccc2)cc1` (racemic) [Example 4, (±)-N-Carbamoyl-trans-3-(N-methyl-4-phenoxybenzenesulfonamido)-4-mercaptopyrrolidine], in data set [1], the hMSC growth curve entry is given as “steadily increased as the concentration of YHJ-7-23 was decreased”. Further, the hCASMC growth curve result in data set [2] (1 nM to 100 μM) was “local minimum originating at 300 nM and minimizing at ˜30 nM”.
For `O=S(=O)(N[C@H]1CNC[C@@H]1S)c1ccc(Oc2ccccc2)cc1` (racemic) [Example 3, (±)-trans-3-(4-Phenoxybenzenesulfonamido)-4-mercaptopyrrolidine Hydrochloride], the hCASMC growth entry in data set [2] (lower concentrations, compared to identical concentrations of YHJ-6-286 and YHJ-7-23) is listed as “increased hCASMC growth nearly two-fold”.
For the compound `NC(=O)N1C[C@H](NS(=O)(=O)c2ccc(Oc3ccccc3)cc2)[C@@H](S)C1` (racemic) [Example 1, (±)-N-Carbamoyl-trans-3-(4-phenoxybenzenesulfonamido)-4-mercaptopyrrolidine], the melting point lay within 170 to 171 °C. Besides, the hMSC growth curve result in data set [1] is “erratic results”. Besides, the “inhibition on hBMEC wound healing” value in data set [3] is “pretty good inhibition”.
